Measurements: patent US9493436B2, “Tyrosine phosphatase inhibitors and uses thereof to modulate the activity of enzymes involved in the pathology of Mycobacterium tuberculosis” (priority 2011, dated 2016)

Key:
Assay in all cases: biochemical
Assay type in all cases: biochemical
mPTPB = target: T1, mPTPB (Mycobacterium tuberculosis, UniProt I6WXK4)
T1 construct: The full-length mPTPB with a N-terminal His6-tag was expressed and purified; His6 (N); made in house; host or cells: E. coli BL21/DE3 (pET28b-mPTPB)
T1 sequence (I6WXK4 1-276): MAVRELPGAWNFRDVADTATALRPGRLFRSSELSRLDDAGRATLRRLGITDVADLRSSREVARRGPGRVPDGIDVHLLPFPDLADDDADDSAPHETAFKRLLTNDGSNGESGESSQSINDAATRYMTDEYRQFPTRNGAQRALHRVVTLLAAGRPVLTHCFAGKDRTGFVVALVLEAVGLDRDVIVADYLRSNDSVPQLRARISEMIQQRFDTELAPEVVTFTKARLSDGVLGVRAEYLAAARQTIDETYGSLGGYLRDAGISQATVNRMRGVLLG

PTP1B = target: T2, PTP1B (Homo sapiens, UniProt P18031)
T2 sequence (P18031 1-435): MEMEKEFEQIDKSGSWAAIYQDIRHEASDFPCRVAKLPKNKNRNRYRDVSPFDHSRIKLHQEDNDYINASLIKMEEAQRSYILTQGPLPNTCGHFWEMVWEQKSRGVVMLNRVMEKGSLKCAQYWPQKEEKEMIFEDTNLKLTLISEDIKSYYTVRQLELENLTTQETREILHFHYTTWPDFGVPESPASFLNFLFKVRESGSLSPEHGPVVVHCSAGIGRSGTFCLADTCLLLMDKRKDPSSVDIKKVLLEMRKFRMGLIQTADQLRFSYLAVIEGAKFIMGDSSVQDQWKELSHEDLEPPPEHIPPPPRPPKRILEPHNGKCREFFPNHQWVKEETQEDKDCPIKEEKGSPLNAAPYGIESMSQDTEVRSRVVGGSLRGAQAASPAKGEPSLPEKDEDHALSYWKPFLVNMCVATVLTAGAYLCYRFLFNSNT

SHP2-D2C = SHP2-D2C (Homo sapiens, UniProt Q06124)
Chain of SHP2-D2C (Q06124 224-528 limits assumed): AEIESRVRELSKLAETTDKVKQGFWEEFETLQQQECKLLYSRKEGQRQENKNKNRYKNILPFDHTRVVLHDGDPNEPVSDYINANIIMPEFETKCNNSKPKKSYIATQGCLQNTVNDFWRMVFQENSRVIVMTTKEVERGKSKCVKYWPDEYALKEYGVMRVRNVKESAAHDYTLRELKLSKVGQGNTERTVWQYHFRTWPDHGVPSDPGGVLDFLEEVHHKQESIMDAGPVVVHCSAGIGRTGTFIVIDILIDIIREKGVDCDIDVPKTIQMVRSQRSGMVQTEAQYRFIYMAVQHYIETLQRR

Cn1c(-c2ccccc2C(F)(F)F)c(C#Cc2cc(F)cc(F)c2)c2cc(C(=O)O)c(O)cc21 [Compound 209a, 3-((3,5-difluorophenyl)ethynyl)-6-hydroxy-1-methyl-2-(2-(trifluoromethyl)phenyl)-1H-indole-5-carboxylic acid]
potency against mPTPB relative to mother compound 207a (mPTPB): 5 times
IC50 (mPTPB; pNPP substrate, pH 7.0, 25° C., read-out: IC50 (μM) against mPTPB): 0.21 ± 0.05 µM
selectivity for mPTPB towards PTP1B (PTP1B): 100 fold
selectivity for mPTPB towards Shpt (SHP2-D2C): 30 fold
